Experiments:
Assay type in all cases: in vivo, Oryzias latipes
[1] = test system: fertilized eggs (W) of wild medaka fish; experiment: Formation of thrombus by 17β-estradiol in fertilized eggs (W) of wild medaka fish; conditions: 25° C., 3 days
Experimental: Medaka physiological saline solutions (40 mL for each) containing 17 β-estradiol in an amount of 2 ng/L, 20 ng/L, 200 ng/L, 2 μg/L, 1 mg/L, and 4 mg/L were supplied in culture plates, respectively. Three sets were prepared for each concentration. About 30 fertilized eggs (W) of 12-hours after fertilization which were obtained by mutual mating between wild medaka fish, were placed in the first set of culture plates. About 30 fertilized eggs (A) of 12-hours after fertilization which were obtained by crossing the strain A of the transgenic medaka fish with wild medaka fish, were placed in the second set of culture plates. About 30 fertilized eggs (C) of 12-hours after fertilization which were obtained by crossing the strain C of the transgenic medaka fish with wild medaka fish, were placed in the third set of culture plates. After the culture plates were incubated at 25° C. for 3 days, medaka embryos were checked under dissecting microscope with respect to formation of a thrombus. In almost 100% of the fertilized eggs (W), one or more thrombi were formed at the concentration of 4 mg/L of 17β-estradiol, but were not observed at the concentration of less than 4 mg/L. 1%, 3%, 8%, 49%, 55%, and 100% of the fertilized eggs (A) caused the formation of the thrombi at the concentrations of 2 ng/L, 20 ng/L, 200 ng/L, 2 μg/L, 1 mg/L, and 4 mg/L of 17β-estradiol, respectively. […]

[2] = test system: fertilized eggs (A), strain A of the transgenic medaka fish crossed with wild medaka fish; experiment: Formation of thrombus by 17β-estradiol in fertilized eggs (A) of strain A transgenic medaka fish; conditions: for fertilized eggs that caused the formation of the thrombi: fertilized eggs (A), 25° C., 3 days
Experimental: (§1) Medaka physiological saline solutions (40 mL for each) containing 17 β-estradiol in an amount of 2 ng/L, 20 ng/L, 200 ng/L, 2 μg/L, 1 mg/L, and 4 mg/L were supplied in culture plates, respectively. Three sets were prepared for each concentration. About 30 fertilized eggs (W) of 12-hours after fertilization which were obtained by mutual mating between wild medaka fish, were placed in the first set of culture plates. About 30 fertilized eggs (A) of 12-hours after fertilization which were obtained by crossing the strain A of the transgenic medaka fish with wild medaka fish, were placed in the second set of culture plates. About 30 fertilized eggs (C) of 12-hours after fertilization which were obtained by crossing the strain C of the transgenic medaka fish with wild medaka fish, were placed in the third set of culture plates. After the culture plates were incubated at 25° C. for 3 days, medaka embryos were checked under dissecting microscope with respect to formation of a thrombus. In almost 100% of the fertilized eggs (W), one or more thrombi were formed at the concentration of 4 mg/L of 17β-estradiol, but were not observed at the concentration of less than 4 mg/L. 1%, 3%, 8%, 49%, 55%, and 100% of the fertilized eggs (A) caused the formation of the thrombi at the concentrations of 2 ng/L, 20 ng/L, 200 ng/L, 2 μg/L, 1 mg/L, and 4 mg/L of 17β-estradiol, respectively. 19%, 41%, 75%, 73%, 60%, and 100% of the fertilized eggs (C) caused the formation of the thrombi at the same concentrations as mentioned above, respectively.

[3] = test system: fertilized eggs (C), strain C of the transgenic medaka fish crossed with wild medaka fish; experiment: Formation of thrombus by 17β-estradiol in fertilized eggs (C) of strain C transgenic medaka fish; conditions: for fertilized eggs that caused the formation of the thrombi: fertilized eggs (C), 25° C., 3 days
Experimental: as §1

## C[C@]12CC[C@@H]3c4ccc(O)cc4CC[C@H]3[C@@H]1CC[C@@H]2O [17β-estradiol]
[1]; 4 mg/L
  fertilized eggs in which one or more thrombi were formed: ~100%
[1]; concentration of less than 4 mg/L
  formation of thrombi: not observed
[2]; fertilized eggs (A) versus wild medaka fish
  estrogen sensitivity relative to that of the wild medaka fish: thousand times
[2]; 2 ng/L
  fertilized eggs that caused the formation of the thrombi: 1%
[2]; 20 ng/L
  fertilized eggs that caused the formation of the thrombi: 3%
[2]; 200 ng/L
  fertilized eggs that caused the formation of the thrombi: 8%
[2]; 2 μg/L
  fertilized eggs that caused the formation of the thrombi: 49%
[2]; 1 mg/L
  fertilized eggs that caused the formation of the thrombi: 55%
[2]; 4 mg/L
  fertilized eggs that caused the formation of the thrombi: 100%
[3]; fertilized eggs (C) versus wild medaka fish
  estrogen sensitivity relative to that of the wild medaka fish: hundred thousand times
[3]; 2 ng/L
  fertilized eggs that caused the formation of the thrombi: 19%
[3]; 20 ng/L
  fertilized eggs that caused the formation of the thrombi: 41%
[3]; 200 ng/L
  fertilized eggs that caused the formation of the thrombi: 75%
[3]; 2 μg/L
  fertilized eggs that caused the formation of the thrombi: 73%
[3]; 1 mg/L
  fertilized eggs that caused the formation of the thrombi: 60%
[3]; 4 mg/L
  fertilized eggs that caused the formation of the thrombi: 100%

— US6759568B2, “High estrogen-sensitive medaka fish” (President of Hiroshima University, priority 2000, dated 2004)
